Test results: PubChem BioAssay (NCI)
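Interpolation was linear, between the two tested concentrations surrounding the appropriate level; five concentrations were tested over 48 hours in 96-well plates. TGI marks complete inhibition of growth.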 Where a SMILES comes first, the peptide text is derived from it. [ ]: non-standard residue; d: D form. pGlu = O=C1CC[CH](C(=O)O)N1; Thz = O=C(O)[CH]1CSCN1

How the values were obtained:
Test in all cases: NCI anticancer screen, dose series, 48 h
BT-549 breast = test system: BT-549 breast
MALME-3M melanoma = test system: MALME-3M melanoma
ACHN renal = test system: ACHN renal
HS 578T breast = test system: HS 578T breast
TK-10 renal = test system: TK-10 renal
OVCAR-4 ovarian = test system: OVCAR-4 ovarian
A549 NSCLC = test system: A549 NSCLC
DU-145 prostate = test system: DU-145 prostate
HT29 colon = test system: HT29 colon
U251 CNS = test system: U251 CNS
SW-620 colon = test system: SW-620 colon

SMILES	TGI (BT-549 breast) [µM]	TGI (MALME-3M melanoma) [µM]	TGI (ACHN renal) [µM]	TGI (HS 578T breast) [µM]	TGI (TK-10 renal) [µM]	TGI (OVCAR-4 ovarian) [µM]	TGI (A549 NSCLC) [µM]	TGI (DU-145 prostate) [µM]	TGI (HT29 colon) [µM]	TGI (U251 CNS) [µM]	TGI (SW-620 colon) [µM]
CO/C=C(/C(=O)OC)[C@@H]1C[C@@H]1c1ccc2ccccc2c1	50.5	50.6	78.7	> 100	> 100	77.1	57.4	> 100	48.6	> 100	
S=C(NCc1ccccc1)Nc1sc(=NCc2ccccc2)nc2sc3c(c12)CCN(N1CCc2c(sc4nc(=NCc5ccccc5)sc(NC(=S)NCc5ccccc5)c24)C1)C3	> 85.6	> 100	> 96.4	> 100	> 90.3	> 91	> 62.9	> 90.8	43.3	> 47.5	> 72.5
O=c1[nH]c(NCc2cccnc2)nc2nc[nH]c12	> 100	> 100	> 100	> 100	> 100	> 100	> 100	> 100	> 100	> 100	> 100
CC(NC(=O)C1CCC(=O)N1)C(=O)N1CCCC1C(N)=O (stereo not drawn) ([pGlu]-Ala-Pro-NH2; configuration not given here)	> 100	> 100	> 100	> 100	> 100	> 100	> 100	> 100	> 100	> 100	> 100
CC(=O)Nc1nc(C)c(S(=O)(=O)NC(=O)NC2NC(=O)NC2=O)s1 (stereo not given)	> 100	> 100	> 100	> 100	> 100	> 100	> 100	> 100	> 100	> 100	> 100
O=C(Cc1ccc2ccccc2c1)NCc1ccc(C(=O)NCCc2ccccc2)cc1	> 100	> 100	> 100	> 100	> 100	> 100	> 100	> 100	> 100	> 100	> 100
C=C1C2CCC3C4(C)CCCC(C)(C(=O)O)C4CCC3(C2)C1OC(=O)/C(C)=C/C (stereo not given)	> 100	> 100	> 100	> 100	> 100	> 100	> 100	> 100	> 100	> 100	> 100
Cc1nc2c(c(N3CCN(C)CC3)n1)Cc1ccccc1-2	> 100	> 100	> 100	> 100	88.1		> 100	> 100	> 100	> 100	> 100
O=C(O)/C=C/c1ccc(Oc2ccccc2C(=O)O)o1	> 10	> 10	> 10	> 10	> 10	> 10	> 10	> 10	> 10	> 10	> 10
O=C1CCC(C(=O)N2CSCC2C(=O)O)N1 (stereo not given) ([pGlu]-[Thz]-OH; configuration not given here)	> 100	> 100	> 100	> 100	> 100		> 100	> 100	> 100		> 100
O=c1onc2n1-c1ccc(Cl)cc1C(=S)N1CSCC21 (stereo not given)	67.4	> 100	> 100	53.9	> 100	> 100	> 100	> 100	53.1	35.9	47.7
COc1ccc(CCN2CCN(CCCc3ccccc3)CC2)cc1	> 100	> 100	> 100	> 100	> 100	> 100	> 100	> 100	> 100	> 100	> 100
C=CCC1(C(=O)OC)CCC/C(=N\O)C1 (stereo not given)	> 10	> 10	> 10	> 10	> 10	> 10	> 10	> 10	> 10	> 10	> 10
Cc1ccc2nc3ccccc3c(C3C4C(=O)N(c5ccc(F)cc5)C(=O)C4ON3C(C(N)=O)c3ccccc3)c2c1 (stereo not given)	> 100	80.7	> 100	> 100	> 100	> 100	> 100	> 100	> 100	> 100	> 100
CC1OC(OC2C(O)COC(OC3C(C)OC(OC4C(OC(=O)[C@]56CCC(C)(C)C[C@@H]5C5=CCC7[C@@]8(C)C[C@H](O)[C@H](OC9OC(CO)C(O)C(O)C9O)[C@@](C)(CO)[C@@H]8CC[C@@]7(C)[C@]5(C)CC6)OCC(O)C4O)C(O)C3O)C2O)C(O)C(O)C1O (stereo not given in full)	45.7	64.3	44.3	60.4	35.3	52.1	43.6	37.5	48.8	54.9	46.5
O=c1[nH]c(Nc2ccc(Br)c(C(F)(F)F)c2)nc2nc[nH]c12	> 100	> 100	> 100	45.6	> 100	> 100	> 100	> 100	> 100	> 100	> 100
Cc1nc(-c2ccccc2)cn2c1nc1ccccc12	38.9	48.9	49.4	> 87.5	> 74.7	65.4	34.8	> 100	> 56.4	36.3	99.1
COC(=O)[C@H](Cc1ccccc1)NC(=O)c1ccc(CNC(=O)/C=C/c2ccc(OCc3ccccc3)cc2)cc1	57.9	11.5	33	21.1	32	25.2	> 72.7	32.4	> 58	> 75.4	> 100
COc1cc(C2C=C(c3ccccc3)Oc3cc4c(cc32)OCO4)cc(OC)c1OC (stereo not given)	> 100	> 100	> 100	> 100	> 100	> 100	> 100	4.58	> 18.3	> 100	> 100
CN(C)CCNc1ccc2ncn3c4ccc(O)cc4c(=O)c1c23	28.1	14.4	4.6	8.19	21.8	4.89	4.26	10.8	7.39	3.97	11.8

SMILES	TGI (BT-549 breast) [µM]	TGI (MALME-3M melanoma) [µM]	TGI (ACHN renal) [µM]	TGI (HS 578T breast) [µM]	TGI (TK-10 renal) [µM]	TGI (OVCAR-4 ovarian) [µM]	TGI (A549 NSCLC) [µM]	TGI (DU-145 prostate) [µM]	TGI (HT29 colon) [µM]	TGI (U251 CNS) [µM]	TGI (SW-620 colon) [µM]
O=C(Nc1ccccc1)N(CCN(Cc1ccccc1)C(=O)Nc1ccccc1)CCN(Nc1ccccc1)C(=O)Nc1ccccc1	> 100	> 100	> 100	> 100	> 100	> 100	> 100	> 100	> 100	> 100	> 100
O=C(O)c1nc2cc(Cl)ccc2[nH]c1=O	> 100	> 100	> 100	> 100	> 100	> 100	> 100	> 100	> 100	> 100	> 100
COC(=O)c1ccc(NCc2cc(OC)ccc2OC)cc1	> 100	> 100	> 100	> 100	> 100	> 100	> 100	> 100	> 100	> 100	> 100
COC1OC2COC1(OCc1ccccc1)C1OC(C)(C)OC21 (stereo not given)	> 100	> 100	> 100	> 100	> 100	> 100	> 100	> 100	> 100	> 100	> 100
COc1ccc(/[N+]([O-])=C/c2ccc(OC(=S)S)c(OC)c2)cc1	79.7	> 100	> 100	> 100	> 100	49	> 100	> 100	> 100	> 100	> 100
C#C[C@]1(O)CC[C@H]2[C@@H]3CCC4=C/C(=N\OCCN5CCCCC5)CC[C@]4(C)[C@H]3CC[C@@]21C	17.6	21.6	22.5	8.86	22.3	40	22.7	23.1	22.4	33.6	29.9
Cc1cc(N(CCC#N)CCC#N)ccc1/C(N=Nc1ccc([N+](=O)[O-])cc1)=N\NC(=O)c1cc(Cl)ccc1O	> 100	> 100	> 100	91.7	> 100	> 100	> 100	> 100	> 100	> 100	
ClCc1nc2ccccc2[nH]1	> 100	> 100	> 100	> 100	> 100	> 100	> 100	> 100	> 100	> 100	> 100
CCOC(=O)c1c(N)sc2c1CC(C)CC2 (stereo not given)	> 100	> 100	> 100	> 100	> 100	> 100	> 100	> 100	50.3	> 100	> 100
Nc1nc(Cl)cc(NCC2(CCO)CCC2)n1	> 100	> 100	> 100	> 100	> 100	> 100	> 100	> 100	> 100	> 100	> 100
CCCCCCN(CCCCCC)CCC(=O)c1ccc2cc(Br)c3ccccc3c2c1	51.6	> 100	> 100	> 100	65.2		> 100	> 100	> 100	> 100	> 100
CC(C)(C)c1cc(/C=C(\C#N)C2=NCCO2)cc(C(C)(C)C)c1O	12.4	19.6	14.5	34.1	16	22.8	19.7	> 40.9	11.7	12	18.5
O=[N+]([O-])c1ncc(N(CCO)CCO)s1	80.6	36.3	> 100	> 100	79.5	> 100		> 100	> 100	> 100	> 100
COC(=O)Nc1nc2ccc(NS(=O)(=O)c3cccs3)cc2[nH]1	> 100	54.7	> 100	36.4	68	> 100	> 100	> 100	> 100	> 100	> 100
COc1ccc(/C=C2\N=C(N3CCCC(CO)C3)NC2=O)cc1 (stereo not given)	> 100	> 100	> 100	> 100	> 100	> 100	> 100	> 100	> 100	> 100	> 100
C(=N\c1nc2cc3sc(/N=C/c4ccccc4)nc3cc2s1)/c1ccccc1	> 100	> 100	> 100	97.4	> 100	> 100	> 100	> 100	> 100	> 100	> 100
C[C@H](Nc1nc(N)c(N=O)c(=O)n1C)C(=O)O	> 10	> 10	> 10	> 10	> 10	> 10	> 10	> 10	> 10	> 10	> 10
Cc1c(NC(=S)Nc2ccc([N+](=O)[O-])cc2)c(=O)n(-c2ccccc2)n1C	> 100	> 100	> 100	> 100	> 100		> 100	> 100	> 100	> 100	> 100
Nc1ncnc2c1ncn2[C@H]1C=C[C@@H](NO)C1	> 100	> 100	> 100	> 100	> 100	> 100	> 100	> 100		> 100	> 100
